Measurements published in paper PMC4058522, “Structural Basis for Phosphorylation-Dependent Recruitment of Tel2 to Hsp90 by Pih1” (Structure(London, England:1993), 2014).
“And” between values parts separate entries of the source, which are not always exact repeats. Equal values may be shown once. Each block holds one molecule with its values, some of them ahead of it. Square brackets hold non-standard residues; d marks the D form. Peptide text beside a SMILES is read from it. pS = N[C@@H](COP(=O)(O)O)C(=O)O

How the values were obtained:
[1] = target: T1, mouse Pih1-PIH domain (Mus musculus, UniProt Q9CQJ2); test: ITC, phosphopeptide binding to Pih1 PIH domain; settings: 30°C; for Kd: 20 mM Tris pH 7.5, 5 mM NaCl, peptides at 350 μM injected into 30 μM Pih1
T1 construct: We determined the crystal structure of the mouse PIH domain^1–200; His (N); made in house
Method: (§1) Heat of interaction was measured on an ITC200 microcalorimeter (Microcal) under the same buffer conditions (20 mM Tris, pH 7.5, containing 5 mM NaCl). Aliquots of the Tel2 peptides at 350 μM were injected into 30 μM of Pih1 at 30°C. Interactions with Tah1 or Spagh/RPAP3^120–395 were performed in 10 mM Tris pH 7.5 and 5 mM NaCl at 10°C and 30°C. Aliquots of 600 μM Tah1 were injected into 40 μM of yeast Hsp90, 400 μM of SRMEEVD injected into 30 μM Tah1, 301 μM yeast Hsp90 injected into 25 μM yeast Tah1-Pih1 complex, and 400 μM SRMEEVD injected into 30 μM yeast Tah1-Pih1 complex. For Spagh/RPAP3^120–395 experiments, aliquots of 500 μM yeast Hsp90 were injected into 20 μM Spagh/RPAP3^120–395 or 2 mM […] into 80 μM Spagh/RPAP3^120–395 or mutants (N172E, N321E, and N172E-N321E). Heats of dilution were determined by diluting injectant into buffer. Data were fitted using a curve-fitting algorithm (Microcal Origin). ATPase assays were previously described ([Prodromou et al., 1999]).

[2] = target: yeast Hsp90; test: ITC, binding of Tah1 or Tah1-Pih1 complex to Hsp90 dimer; settings: for Kd: 10 mM Tris pH 7.5, 5 mM NaCl, 600 μM Tah1 into 40 μM yeast Hsp90, or 301 μM yeast Hsp90 into 25 μM yeast Tah1-Pih1 complex; for N (sites) / ΔH / ΔS: same titrations as KD
Method: as §1

T1 sequence (Q9CQJ2 1-200): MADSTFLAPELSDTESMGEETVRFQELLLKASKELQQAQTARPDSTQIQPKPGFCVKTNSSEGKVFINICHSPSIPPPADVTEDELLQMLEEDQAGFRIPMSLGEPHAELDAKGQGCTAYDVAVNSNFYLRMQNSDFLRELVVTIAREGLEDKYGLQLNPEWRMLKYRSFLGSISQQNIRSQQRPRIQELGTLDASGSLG

Molecule: CC[C@H](C)[C@H](NC(=O)[C@H](CO)NC(=O)[C@H](CC(=O)O)NC(=O)[C@H](CC(=O)O)NC(=O)[C@H](COP(=O)(O)O)NC(=O)[C@H](CC(=O)O)NC(=O)[C@H](CC(N)=O)NC(=O)[C@H](C)NC(=O)[C@@H](N)CCSC)C(=O)O [Mre11 phosphoserine peptide] (H-MAND[pS]DDSI-OH; N-terminus and C-terminus assumed)
ΔH [1]: -7313 ± 354.7 cal/mol
ΔS [1]: -0.36 cal/mol/deg
N ([1]; fitted): 0.76 ± 0.03 sites

Molecule: CC(C)C[C@H](NC(=O)[C@H](CCC(=O)O)NC(=O)[C@H](COP(=O)(O)O)NC(=O)[C@H](CC(=O)O)NC(=O)[C@H](COP(=O)(O)O)NC(=O)CNC(=O)[C@@H](N)CCC(N)=O)C(=O)N[C@@H](CC(=O)O)C(=O)N[C@@H](CO)C(=O)N[C@@H](CC(=O)O)C(=O)N[C@@H](CC(=O)O)C(=O)N[C@@H](CCC(=O)O)C(=O)N[C@@H](Cc1ccccc1)C(=O)O [pS486, pS488-Tel2]
Kd [1]: 37.9 µM

Molecule: Tah1-Pih1 complex: pre-assembled full-length yeast Tah1-Pih1 complex
Kd [2]: 4 µM
N (sites) [2]: 0.93 ± 0.04 sites
ΔH [2]: -7595 ± 404 cal/mol
ΔS [2]: -0.367 cal/mol/deg

Molecule: Tah1: yeast TPR-domain protein, Hsp90 cochaperone of the R2TP complex
Kd [2]: 5.9 µM
N (sites) [2]: 0.68 ± 0.01 sites
ΔH [2]: -8445 ± 164.2 cal/mol
ΔS [2]: -3.95 cal/mol/deg

Next, values leading:

Kd [1]: 115 µM and > 100 µM
Molecule: CC(C)C[C@H](NC(=O)[C@H](CCC(=O)O)NC(=O)[C@H](CO)NC(=O)[C@H](CC(=O)O)NC(=O)[C@H](COP(=O)(O)O)NC(=O)CNC(=O)[C@@H](N)CCC(N)=O)C(=O)N[C@@H](CC(=O)O)C(=O)N[C@@H](CO)C(=O)N[C@@H](CC(=O)O)C(=O)N[C@@H](CC(=O)O)C(=O)N[C@@H](CCC(=O)O)C(=O)N[C@@H](Cc1ccccc1)C(=O)O [pS486-Tel2]

Kd [1]: 0.17 µM
Molecule: CC(C)C[C@H](NC(=O)[C@H](CCC(=O)O)NC(=O)[C@H](COP(=O)(O)O)NC(=O)[C@H](CC(=O)O)NC(=O)[C@H](CO)NC(=O)CNC(=O)[C@@H](N)CCC(N)=O)C(=O)N[C@@H](CC(=O)O)C(=O)N[C@@H](COP(=O)(O)O)C(=O)N[C@@H](CC(=O)O)C(=O)N[C@@H](CC(=O)O)C(=O)N[C@@H](CCC(=O)O)C(=O)N[C@@H](Cc1ccccc1)C(=O)O [pS488,pS492-Tel2]

Kd [1]: 15.3 µM
Molecule: CC(C)C[C@H](NC(=O)[C@H](CCC(=O)O)NC(=O)[C@H](COP(=O)(O)O)NC(=O)[C@H](CC(=O)O)NC(=O)[C@H](CO)NC(=O)CNC(=O)[C@@H](N)CCC(N)=O)C(=O)N[C@@H](CC(=O)O)C(=O)N[C@@H](CO)C(=O)N[C@@H](CC(=O)O)C(=O)N[C@@H](CC(=O)O)C(=O)N[C@@H](CCC(=O)O)C(=O)N[C@@H](Cc1ccccc1)C(=O)O [pS488-Tel2]

Kd [1]: 0.39 µM
Molecule: CC(C)C[C@H](NC(=O)[C@H](CCC(=O)O)NC(=O)[C@H](CO)NC(=O)[C@H](CC(=O)O)NC(=O)[C@H](CO)NC(=O)CNC(=O)[C@@H](N)CCC(N)=O)C(=O)N[C@@H](CC(=O)O)C(=O)N[C@@H](COP(=O)(O)O)C(=O)N[C@@H](CC(=O)O)C(=O)N[C@@H](CC(=O)O)C(=O)N[C@@H](CCC(=O)O)C(=O)N[C@@H](Cc1ccccc1)C(=O)O [pS492-Tel2]
